20 compounds from patent US12331040B2 (Karyopharm Therapeutics Inc., priority 2013, dated 2025) can be followed below.

pIC50: −log10 of the molar value. Where two headings read alike, the source gives them in different places.

Holding throughout (experiment): MTT cell proliferation assay
Holding throughout (assay type): cell-based

For assay [1], the system named is 3T3 cells. The conditions noted are these: Mus musculus, NIH3T3, approximately 64-72 hours incubation. On the procedure: (§1) The MTT cell proliferation assay was used to study the cytotoxic properties of the compounds. The assay was performed according to the method described by Roche Molecular Biochemicals, with minor modifications. The assay is based on the cleavage of the tetrazolium salt, MTT, in the presence of an electron-coupling reagent. The water-insoluble formazan salt produced must be solubilized in an additional step. Cells grown in a 96-well tissue culture plate were incubated with the MTT solution for approximately 4 hours. After this incubation period, a water-insoluble formazan dye formed. After solubilization, the formazan dye was quantitated using a scanning multi-well spectrophotometer (ELISA reader). […] The cells were seeded at 5,000-10,000 cells in each well of 96-well plate in 100 μL of fresh culture medium and were allowed to attach overnight. The stock solutions of the compounds were diluted in 100 μL cell culture medium to obtain eight concentrations of each test compound, ranging from 1 nM to 30 μM. […] All optical densities were measured at 490 nm using a Vmax Kinetic Microplate Reader (Molecular Devices). In most cases, the assay was performed in duplicate and the results were presented as a mean percent inhibition to the negative control±SE. The following formula was used to calculate the percent of inhibition: Inhibition (%)=(1−(ODo/OD))×100.
(§2) The compounds were tested against MS751, Z138 and 3T3 cells. The MS751 cell line is derived from a metastasis to lymph node of human cervix from a patient diagnosed with squamous cell carcinoma of the cervix. The Z138 cell line is a mature B-cell acute lymphoblastic leukemia cell line derived from a patient with chronic lymphocytic leukemia. 3T3 cells are standard fibroblast cells; they were originally isolated from Swiss mouse embryo tissue.

Assay [2] relates to MS751 cells. The conditions noted are these: Homo sapiens, MS751, MS751 cells, approximately 64-72 hours incubation. The protocol:
as §1, §2

For assay [3], the system named is Z138 cells. The conditions noted are these: Homo sapiens, Z-138, Z138 cells, approximately 64-72 hours incubation. The protocol:
as §1, §2

Setting [4] is: read-out: MTT Assay IC50 MS-751.
Where [5] appears, read: read-out: MTT Assay IC50, MS-751.
Where [6] appears, read: read-out: MTT Assay IC50, Z-138.

Turning to `Nc1ccc(/C=C/C(=O)NCc2cc3cc(-c4ccc(C(=O)NC5(C(F)(F)F)CC5)cn4)cc(C(F)(F)F)c3o2)cn1` [Compound 619, (E)-6-(2-((3-(6-aminopyridin-3-yl)acrylamido)methyl)-7-(trifluoromethyl)benzofuran-5-yl)-N-(1-(trifluoromethyl)cyclopropyl)nicotinamide], the pIC50 in assay [1] (read-out: MTT Assay IC50 3T3) was below 5.00; in assay [2] (setting [4]), 5.30 to 7.00; in assay [3] (read-out: MTT Assay IC50 Z-138) it was 5.30 to 7.00.
Consider `Cc1noc(-c2ccc(F)cc2)c1-c1cc(C(F)(F)F)c2oc(CNC(=O)/C=C/c3ccc(N)nc3)cc2c1` [Compound 648, (E)-3-(6-aminopyridin-3-yl)-N-((5-(5-(4-fluorophenyl)-3-methylisoxazol-4-yl)-7-(trifluoromethyl)benzofuran-2-yl)methyl)acrylamide], for which the pIC50 in assay [1] (read-out: MTT Assay IC50 3T3) is below 5.00; in assay [2] (setting [4]), 5.30 to 7.00; in assay [3] (read-out: MTT Assay IC50 Z-138), 5.30 to 7.00.
Take `Nc1ccc(/C=C/C(=O)NCc2cc3cc(-c4ccc(C(=O)N5CCC(F)(F)CC5)cc4)cc(-c4ccc(F)nc4F)c3o2)cn1` [Compound 754, (E)-3-(6-aminopyridin-3-yl)-N-((5-(4-(4,4-difluoropiperidine-1-carbonyl)phenyl)-7-(2,6-difluoropyridin-3-yl)benzofuran-2-yl)methyl)acrylamide]: the pIC50 was 5.30 to 7.00 in assay [1] (read-out: MTT Assay IC50, 3T3); above 7.00 in assay [2] (setting [5]); above 7.00 in assay [3] (setting [6]).
For `Nc1ccc(/C=C/C(=O)NCc2cc3cc(-c4ccc(C(=O)N5CCCCC5)cc4)cc(C(F)(F)F)c3o2)cn1` [Compound 595, (E)-3-(6-aminopyridin-3-yl)-N-((5-(4-(piperidine-1-carbonyl)phenyl)-7-(trifluoromethyl)benzofuran-2-yl)methyl)acrylamide], the pIC50 in assay [1] (read-out: MTT Assay IC50 3T3) was below 5.00; in assay [2] (setting [4]) it was 5.30 to 7.00; in assay [3] (read-out: MTT Assay IC50 Z-138) it was 5.30 to 7.00.
In the case of `O=C(/C=C/c1ccc(C(F)(F)F)nc1)NCc1cc2cc(-c3ccc(C(=O)N4CCOCC4)cc3)cc(Cl)c2o1` [Compound 536, (E)-N-((7-Chloro-5-(4-(morpholine-4-carbonyl)phenyl)benzofuran-2-yl)methyl)-3-(6-(trifluoromethyl)pyridin-3-yl)acrylamide], the pIC50 was below 5.00 in assay [1] (read-out: MTT Assay IC50 3T3), below 5.00 in assay [2] (setting [4]) and 5.00 to 5.30 in assay [3] (read-out: MTT Assay IC50 Z-138).
Turning to `COc1cc(-c2ncc(C(=O)N3CCNCC3)cn2)cc2cc(CNC(=O)/C=C/c3ccc(N)nc3)oc12` [Compound 639, (E)-3-(6-aminopyridin-3-yl)-N-((7-methoxy-5-(5-(piperazine-1-carbonyl)pyrimidin-2-yl)benzofuran-2-yl)methyl)acrylamide], the pIC50 was below 5.00 in assay [1] (read-out: MTT Assay IC50 3T3), 5.30 to 7.00 in assay [2] (setting [4]) and 5.30 to 7.00 in assay [3] (read-out: MTT Assay IC50 Z-138).
Consider `O=C(/C=C/c1cccnc1)NCc1cc2cc(-c3ccc(C(=O)N4CCC(F)(F)CC4)cc3)cc(-c3ccc(F)cc3)c2o1` [Compound 729], for which the pIC50 in assay [1] (read-out: MTT Assay IC50, 3T3) was above 7.00; in assay [2] (setting [5]), above 7.00; in assay [3] (setting [6]) it was above 7.00.
Consider `Nc1ccc(/C=C/C(=O)NCc2cc3cc(-c4ccc(C(=O)N5CCC(F)(F)C5)cn4)cc(C(F)(F)F)c3o2)cn1` [Compound 612, (E)-3-(6-aminopyridin-3-yl)-N-((5-(5-(3,3-difluoropyrrolidine-1-carbonyl)pyridin-2-yl)-7-(trifluoromethyl)benzofuran-2-yl)methyl)acrylamide], for which the results for the pIC50 in assay [1] (read-out: MTT Assay IC50 3T3), in assay [2] (setting [4]) and in assay [3] (read-out: MTT Assay IC50 Z-138) were below 5.00, 5.30 to 7.00 and above 7.00, respectively.
Regarding `Nc1ccc(/C=C/C(=O)NCc2nc3cc(-c4ccc(C(=O)N5CCOCC5)cc4)cc(Cl)c3o2)cn1` [Compound 501, (E)-3-(6-aminopyridin-3-yl)-N-((7-chloro-5-(4-(morpholine-4-carbonyl)phenyl)benzo[d]oxazol-2-yl)methyl)acrylamide], the pIC50 in assay [1] (read-out: MTT Assay IC50 3T3) is below 5.00; in assay [2] (setting [4]), 5.30 to 7.00; in assay [3] (read-out: MTT Assay IC50 Z-138), 5.30 to 7.00.
On to `Nc1ccc(/C=C/C(=O)NCc2cc3cc(-c4ccc(C(=O)N5CCC(F)(F)CC5)cc4)cc(-c4ccc(F)c(F)c4)c3o2)cn1` [Compound 737, (E)-3-(6-aminopyridin-3-yl)-N-((7-(3,4-difluorophenyl)-5-(4-(4,4-difluoropiperidine-1-carbonyl)phenyl)benzofuran-2-yl)methyl)acrylamide], for which the pIC50 was 5.30 to 7.00 in assay [1] (read-out: MTT Assay IC50, 3T3); above 7.00 in assay [2] (setting [5]); above 7.00 in assay [3] (setting [6]).
Regarding `Nc1ccc(/C=C/C(=O)NCc2cc3cc(-c4ccc(C(=O)N5CCC(F)(F)CC5)cn4)cc(C(F)(F)F)c3o2)cc1F` [Compound 676, (E)-3-(4-amino-3-fluorophenyl)-N-((5-(5-(4,4-difluoropiperidine-1-carbonyl)pyridin-2-yl)-7-(trifluoromethyl)benzofuran-2-yl)methyl)acrylamide], the negative-log IC50 (pIC50) in assay [1] (read-out: MTT Assay IC50, 3T3) was below 5.00; in assay [2] (setting [5]), below 5.00; in assay [3] (setting [6]), below 5.00.
Take `O=C(/C=C/c1ccncc1)NCc1cc2cc(-c3ccc(C(=O)N4CCOCC4)cc3)cc(Cl)c2o1` [Compound 535, (E)-N-((7-Chloro-5-(4-(morpholine-4-carbonyl)phenyl)benzofuran-2-yl)methyl)-3-(pyridin-4-yl)acrylamide]: the pIC50 in assay [1] (read-out: MTT Assay IC50 3T3), in assay [2] (setting [4]) and in assay [3] (read-out: MTT Assay IC50 Z-138) was below 5.00 throughout.
As to `O=C(/C=C/c1cccnc1)NCc1cc2cc(-c3ccc(C(=O)N4CCC(F)(F)CC4)cn3)cc(-c3ccncc3)c2o1` [Compound 674], the pIC50 in assay [1] (read-out: MTT Assay IC50, 3T3) was above 7.00; in assay [2] (setting [5]), above 7.00; in assay [3] (setting [6]), above 7.00.
Consider `CC(C)(O)c1ccc(-c2cc(Cl)c3oc(CNC(=O)/C=C/c4ccc(N)nc4)cc3c2)s1` [Compound 650, (E)-3-(6-aminopyridin-3-yl)-N-((7-chloro-5-(5-(2-hydroxypropan-2-yl)thiophen-2-yl)benzofuran-2-yl)methyl)acrylamide], for which the pIC50 in assay [1] (read-out: MTT Assay IC50 3T3) is below 5.00; in assay [2] (setting [4]), 5.30 to 7.00; in assay [3] (read-out: MTT Assay IC50 Z-138), 5.30 to 7.00.
As to `Nc1ccc(/C=C/C(=O)NCc2cc3cc(-c4ccc(C(=O)N5CCC(F)(F)CC5)cn4)c(C(F)(F)F)cc3o2)cn1` [Compound 664, (E)-3-(6-aminopyridin-3-yl)-N-((5-(5-(4,4-difluoropiperidine-1-carbonyl)pyridin-2-yl)-6-(trifluoromethyl)benzofuran-2-yl)methyl)acrylamide], the pIC50 in assay [1] (read-out: MTT Assay IC50, 3T3) was below 5.00; in assay [2] (setting [5]), below 5.00; in assay [3] (setting [6]), below 5.00.
As for `[2H]C([2H])([2H])Oc1cc(-c2ccc(C(=O)N3CCC(F)(F)CC3)cn2)cc2cc(CNC(=O)/C=C/c3ccc(N)nc3)oc12` [Compound 660, (E)-3-(6-aminopyridin-3-yl)-N-((5-(5-(4,4-difluoropiperidine-1-carbonyl)pyridin-2-yl)-7-(methoxy-d3)benzofuran-2-yl)methyl)acrylamide], the pIC50 in assay [1] (read-out: MTT Assay IC50, 3T3) is below 5.00; in assay [2] (setting [5]) it was above 7.00; in assay [3] (setting [6]), above 7.00.
Turning to `Nc1ccc(/C=C/C(=O)NCc2cc3cc(-c4ccc(C(=O)NCc5cccnc5)cn4)cc(C(F)(F)F)c3o2)cn1` [Compound 630, (E)-6-(2-((3-(6-aminopyridin-3-yl)acrylamido)methyl)-7-(trifluoromethyl)benzofuran-5-yl)-N-(pyridin-3-ylmethyl)nicotinamide], the pIC50 was 5.30 to 7.00 in assay [1] (read-out: MTT Assay IC50 3T3), above 7.00 in assay [2] (setting [4]) and above 7.00 in assay [3] (read-out: MTT Assay IC50 Z-138).
For `Nc1ccc(/C=C/C(=O)NCc2cc3cc(-c4ccc(C(=S)N5CCC(F)(F)CC5)cc4)cc(-c4ccncc4)c3o2)cn1` [Compound 705, (E)-3-(6-aminopyridin-3-yl)-N-((5-(4-(4,4-difluoropiperidine-1-carbonothioyl)phenyl)-7-(pyridin-4-yl)benzofuran-2-yl)methyl)acrylamide], the pIC50 was 5.30 to 7.00 in assay [1] (read-out: MTT Assay IC50, 3T3); above 7.00 in assay [2] (setting [5]); above 7.00 in assay [3] (setting [6]).
Consider `CC(C)(C)c1cc(-c2ccc(C(=O)N3CCOCC3)cc2)cc2cc(CNC(=O)/C=C/c3ccc(N)nc3)oc12` [Compound 511, (E)-3-(6-aminopyridin-3-yl)-N-((7-tert-butyl-5-(4-(morpholine-4-carbonyl)phenyl)benzofuran-2-yl)methyl)acrylamide], for which the pIC50 in assay [1] (read-out: MTT Assay IC50 3T3) was below 5.00; in assay [2] (setting [4]) it was 5.30 to 7.00; in assay [3] (read-out: MTT Assay IC50 Z-138) it was 5.30 to 7.00.
On to `O=C(/C=C/c1cccnc1)NCc1cc2cc(-c3ccc(C(=O)N4CCC(F)(F)CC4)cc3)cc(-c3cccc(F)c3)c2o1` [Compound 727, (E)-N-((5-(4-(4,4-difluoropiperidine-1-carbonyl)phenyl)-7-(3-fluorophenyl)benzofuran-2-yl)methyl)-3-(pyridin-3-yl)acrylamide], for which the pIC50 in assay [1] (read-out: MTT Assay IC50, 3T3) was above 7.00; in assay [2] (setting [5]), above 7.00; in assay [3] (setting [6]) it was above 7.00.
